Laboratory results taken from US20240199587A1, “HETEROCYCLIC COMPOUNDS” (Hoffmann-La Roche Inc., priority 2021, published 2024).

Target: T1, MAGL (Homo sapiens, UniProt Q99685)
T1 sequence (Q99685 1-303): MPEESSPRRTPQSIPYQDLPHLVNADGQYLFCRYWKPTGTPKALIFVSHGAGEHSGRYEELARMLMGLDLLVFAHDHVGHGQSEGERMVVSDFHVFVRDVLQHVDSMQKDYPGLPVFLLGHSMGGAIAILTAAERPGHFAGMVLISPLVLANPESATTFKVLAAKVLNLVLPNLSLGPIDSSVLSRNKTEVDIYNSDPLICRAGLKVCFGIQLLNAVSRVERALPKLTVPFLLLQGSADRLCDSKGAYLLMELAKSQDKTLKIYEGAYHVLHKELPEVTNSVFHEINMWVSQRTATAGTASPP
Assay: 2-AG assay (MAGL inhibitory activity, hydrolysis of 2-arachidonoylglycerol to arachidonic acid followed by mass spectrometry)
Format: biochemical
Conditions: 8 μM 2-arachidonoylglycerol, 15 min pre-incubation, 30 min incubation at RT, RapidFire MS readout
In short: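 Arachidonic acid released from 8 μM 2-arachidonoylglycerol was quantified by online SPE triple-quadrupole MS (negative ESI, 303.1→259.1), normalised to d8-arachidonic acid internal standard. Reaction ran 30 min at RT after 15 min RT compound pre-incubation with […] MAGL in TRIS/EDTA/Tween-20 buffer, 2.5% DMSO.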

| IC50 | SMILES |
| --- | --- |
| 5.3 nM | COc1ccc(OC2CC3(C2)CN(C(=O)N2CC4(CC(n5cnc(C6CC6)n5)C4)C2)C3)cn1 [Example 60, (6-(3-cyclopropyl-1H-1,2,4-triazol-1-yl)-2-azaspiro[3.3]heptan-2-yl)(6-((6-methoxypyridin-3-yl)oxy)-2-azaspiro[3.3]heptan-2-yl)methanone] |
| 5.4 nM | O=C(N1CC2(CC(Oc3cnc(C(F)(F)F)nc3)C2)C1)N1CC2(CC(n3cnc(C4CC4)n3)C2)C1 [Example 61, (6-(3-cyclopropyl-1H-1,2,4-triazol-1-yl)-2-azaspiro[3.3]heptan-2-yl)(6-((2-(trifluoromethyl)pyrimidin-5-yl)oxy)-2-azaspiro[3.3]heptan-2-yl)methanone] |
| 7.2 nM | O=C(N1CC2(CC(Oc3ccc(C(F)(F)F)nn3)C2)C1)N1CC2(CC(n3cnc(C4CC4)n3)C2)C1 [Example 62, [6-(3-cyclopropyl-1,2,4-triazol-1-yl)-2-azaspiro[3.3]heptan-2-yl]-[6-[6-(trifluoromethyl)pyridazin-3-yl]oxy-2-azaspiro[3.3]heptan-2-yl]methanone] |
| 19.8 nM | O=C(N1CC2(CC(Oc3cncc(F)c3)C2)C1)N1CC2(CC(n3cnc(C4CC4)n3)C2)C1 [Example 63, (6-(3-cyclopropyl-1H-1,2,4-triazol-1-yl)-2-azaspiro[3.3]heptan-2-yl)(6-((5-fluoropyridin-3-yl)oxy)-2-azaspiro[3.3]heptan-2-yl)methanone] |
| 21.7 nM | CC(C)(C)c1nc(-c2ccc(C(=O)N3CC4(CC(n5cnc(C6CC6)c5)C4)C3)cc2)no1 [Example 64, (4-(5-(tert-butyl)-1,2,4-oxadiazol-3-yl)phenyl)(6-(4-cyclopropyl-1H-imidazol-1-yl)-2-azaspiro[3.3]heptan-2-yl)methanone] |
| 83.2 nM | O=C(N1CC2(CC(OCC(F)(F)F)C2)C1)N1CC2(CC(n3cnc(C4CC4)n3)C2)C1 [Example 65, [6-(3-cyclopropyl-1,2,4-triazol-1-yl)-2-azaspiro[3.3]heptan-2-yl]-[6-(2,2,2-trifluoroethoxy)-2-azaspiro[3.3]heptan-2-yl]methanone] |
| 159 nM | Cn1ccc(OC2CC3(C2)CN(C(=O)N2CC4(CC(n5cnc(C6CC6)n5)C4)C2)C3)cc1=O [Example 66, 4-[[2-[6-(3-cyclopropyl-1,2,4-triazol-1-yl)-2-azaspiro[3.3]heptane-2-carbonyl]-2-azaspiro[3.3]heptan-6-yl]oxy]-1-methyl-pyridin-2-one] |
| 3170 nM | O=C(N1CC(c2ccc(C3(C(F)(F)F)CC3)cc2)C1)N1CC2(CC(n3ncnc3C3CC3)C2)C1 [Example 67, [6-(5-cyclopropyl-1,2,4-triazol-1-yl)-2-azaspiro13.31heptan-2-yl]−[3-[4-[1-(trifluoromethyl)cyclopropyl]phenyl]azetidin-1-yl]1methanone] |
| 0.9 nM | O=C(N1CC2(CC(Oc3ccc(F)c(F)c3)C2)C1)N1CC2(CC(n3cnc(C4CC4)n3)C2)C1 [Example 68, [6-(3-cyclopropyl-1,2,4-triazol-1-yl)-2-azaspiro[3.3]heptan-2-yl]-[6-(3,4-difluorophenoxy)-2-azaspiro[3.3]heptan-2-yl]methanone] |
| 2 nM | O=C(N1CC(c2ccc(OC(F)(F)F)c(Cl)c2)C1)N1CC2(CC(n3cnc(C4CC4)c3)C2)C1 [Example 69] |
| 2.1 nM | O=C(N1CC2(CC(Oc3cnc(C(F)(F)F)cn3)C2)C1)N1CC2(CC(n3cnc(C4CC4)n3)C2)C1 [Example 70, [6-(3-cyclopropyl-1,2,4-triazol-1-yl)-2-azaspiro[3.3]heptan-2-yl]-[6-[5-(trifluoromethyl)pyrazin-2-yl]oxy-2-azaspiro[3.3]heptan-2-yl]methanone] |
| 7.1 nM | O=C(N1CC(OCc2ccc(OC(F)(F)F)cc2)C1)N1CC2(CC(n3cnc(C4CC4)n3)C2)C1 [Example 71, (6-(3-cyclopropyl-1H-1,2,4-triazol-1-yl)-2-azaspiro[3.3]heptan-2-yl)(3-((4-(trifluoromethoxy)ben-zyl)oxy)azetidin-1-yl)methanone] |
| 3.9 nM | O=C(N1CC(OCc2ccc(C(F)(F)F)cc2)C1)N1CC2(CC(n3cnc(C4CC4)n3)C2)C1 [Example 72, (6-(3-cyclopropyl-1H-1,2,4-triazol-1-yl)-2-azaspiro[3.3]heptan-2-yl)(3-((4-(trifluoromethyl)benzyl)oxy)azetidin-1-yl)methanone] |
| 8.2 nM | O=C(N1CC(OCc2cc(C(F)(F)F)ccc2F)C1)N1CC2(CC(n3cnc(C4CC4)n3)C2)C1 [Example 73, (6-(3-cyclopropyl-1H-1,2,4-triazol-1-yl)-2-azaspiro[3.3]heptan-2-yl)(3-((2-fluoro-5-(trifluoromethyl)benzyl)oxy)azetidin-1-yl)methanone] |
| 160 nM | O=C(N1CC(OCc2ccc(C(F)(F)F)c(F)c2)C1)N1CC2(CC(n3cnc(C4CC4)n3)C2)C1 [Example 74, (6-(3-cyclopropyl-1H-1,2,4-triazol-1-yl)-2-azaspiro[3.3]heptan-2-yl)(3-((3-fluoro-4-(trifluoromethyl)benzyl)oxy)azetidin-1-yl)methanone] |
| 2.7 nM | O=C(N1CC(OCc2ccc(OC(F)(F)F)cc2F)C1)N1CC2(CC(n3cnc(C4CC4)n3)C2)C1 [Example 75, (6-(3-cyclopropyl-1H-1,2,4-triazol-1-yl)-2-azaspiro[3.3]heptan-2-yl)(3-((2-fluoro-4-(trifluoromethoxy)ben-zyl)oxy)azetidin-1-yl)methanone] |
| 2.2 nM | O=C(N1CC(OCc2cc(F)cc(C(F)(F)F)c2)C1)N1CC2(CC(n3cnc(C4CC4)n3)C2)C1 [Example 76, (6-(3-cyclopropyl-1H-1,2,4-triazol-1-yl)-2-azaspiro[3.3]heptan-2-yl)(3-((3-fluoro-5-(trifluoromethyl)benzyl)oxy)azetidin-1-yl)methanone] |
| 9.2 nM | O=C(N1CC(OCc2ccc(F)cc2Cl)C1)N1CC2(CC(n3cnc(C4CC4)n3)C2)C1 [Example 77, (3-((2-chloro-4-fluorobenzyl)oxy)azetidin-1-yl)(6-(3-cyclopropyl-1H-1,2,4-triazol-1-yl)-2-azaspiro[3.3]heptan-2-yl)methanone] |
| 12.2 nM | O=C(N1CC(OCc2ccc(F)cc2C(F)(F)F)C1)N1CC2(CC(n3cnc(C4CC4)n3)C2)C1 [Example 78, (6-(3-cyclopropyl-1H-1,2,4-triazol-1-yl)-2-azaspiro[3.3]heptan-2-yl)(3-((4-fluoro-2-(trifluoromethyl)benzyl)oxy)azetidin-1-yl)methanone] |
| 1.3 nM | O=C(N1CC2(CC(Oc3cc(F)ccc3F)C2)C1)N1CC2(CC(n3cnc(C4CC4)n3)C2)C1 [Example 79, (6-(3-cyclopropyl-1H-1,2,4-triazol-1-yl)-2-azaspiro[3.3]heptan-2-yl)(6-(2,5-difluorophenoxy)-2-azaspiro[3.3]heptan-2-yl)methanone] |
| 2.2 nM | O=C(N1CC2(CC(Oc3ccc(C(F)(F)F)nc3)C2)C1)N1CC2(CC(n3cnc(C4CC4)n3)C2)C1 [Example 80, (6-(3-cyclopropyl-1H-1,2,4-triazol-1-yl)-2-azaspiro[3.3]heptan-2-yl)(6-((6-(trifluoromethyl)pyridin-3-yl)oxy)-2-azaspiro[3.3]heptan-2-yl)methanone] |
| 1.8 nM | O=C(N1CC2(CC(Oc3cncc(C(F)(F)F)c3)C2)C1)N1CC2(CC(n3cnc(C4CC4)n3)C2)C1 [Example 81, (6-(3-cyclopropyl-1H-1,2,4-triazol-1-yl)-2-azaspiro[3.3]heptan-2-yl)(6-((5-(trifluoromethyl)pyridin-3-yl)oxy)-2-azaspiro[3.3]heptan-2-yl)methanone] |
| 3.7 nM | O=C(N1CC2(CC(Oc3cncc(Cl)c3)C2)C1)N1CC2(CC(n3cnc(C4CC4)n3)C2)C1 [Example 82, (6-((5-chloropyridin-3-yl)oxy)-2-azaspiro[3.3]heptan-2-yl)(6-(3-cyclopropyl-1H-1,2,4-triazol-1-yl)-2-azaspiro[3.3]heptan-2-yl)methanone] |
| 5.2 nM | O=C(N1CC2(CC(Oc3ccc(Cl)nc3)C2)C1)N1CC2(CC(n3cnc(C4CC4)n3)C2)C1 [Example 83, (6-((6-chloropyridin-3-yl)oxy)-2-azaspiro[3.3]heptan-2-yl)(6-(3-cyclopropyl-1H-1,2,4-triazol-1-yl)-2-azaspiro[3.3]heptan-2-yl)methanone] |
| 0.6 nM | O=C(N1CC(c2ccc(OC(F)(F)F)cc2Cl)C1)N1CC2(CC(n3cnc(C4CC4)n3)C2)C1 [Example 84, [3-[2-chloro-4-(trifluoromethoxy)phenyl]azetidin-1-yl]−[6-(3-cyclopropyl-1,2,4-triazol-1-yl)-2-azaspiro[3.3]heptan-2-yl]methanone] |
| 0.4 nM | O=C(N1CC(c2cc(F)c(OC(F)(F)F)c(F)c2)C1)N1CC2(CC(n3cnc(C4CC4)n3)C2)C1 [Example 85, [6-(3-cyclopropyl-1,2,4-triazol-1-yl)-2-azaspiro[3.3]heptan-2-yl]-[3-[3,5-difluoro-4-(trifluoromethoxy)phenyl]azetidin-1-yl]methanone] |
| 0.4 nM | O=C(N1CC(c2ccc(OC(F)(F)F)cc2F)C1)N1CC2(CC(n3cnc(C4CC4)n3)C2)C1 [Example 86, [6-(3-cyclopropyl-1,2,4-triazol-1-yl)-2-azaspiro[3.3]heptan-2-yl]-[3-[2-fluoro-4-(trifluoromethoxy)phenyl]azetidin-1-yl]methanone] |
| 6.5 nM | CC(C)(C)c1nc(C2CN(C(=O)N3CC4(CC(n5cnc(C6CC6)n5)C4)C3)C2)cs1 [Example 87, [3-(2-tert-butylthiazol-4-yl)azetidin-1-yl]-[6-(3-cyclopropyl-1,2,4-triazol-1-yl)-2-azaspiro[3.3]heptan-2-yl]methanone] |
